The results in this text go back to BindingDB's records for doi:10.7270/Q2KK9971 (Nmmlsc, 2009).

Molecules are shown by their SMILES.

Broadly, the EC50 is the midpoint of the concentration-response curve. A high value points to weaker potency.

The first test deals with T1, GTPase KRas [1-37] (Homo sapiens, UniProt G3V5T7).
T1 construct: 1-37
T1 sequence (G3V5T7 whole entry): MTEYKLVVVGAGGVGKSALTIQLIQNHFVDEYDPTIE
The test is described as follows: Ras wild-type GTP-binding inhibitors, SAR follow-up, biochemical, pyrazoline analogs, multiplex bead flow cytometry (AID 2047).
Details: not given
(In flow cytometry, cells or beads pass a laser one at a time.)
Turning to `Cc1ccccc1N1N=C(c2ccccc2)CC1c1ccc(N(C)C)cc1` (configuration not stated) [N,N-dimethyl-4-[2-(2-methylphenyl)-5-phenyl-3,4-dihydropyrazol-3-yl]aniline], the concentration giving a half-maximal response (EC50) was over 30 µM.
Compound `COc1ccc(C2CC(c3ccccc3)=NN2c2ccc(S(N)(=O)=O)cc2)cc1OC` (configuration not stated) [UNM-0000305823] returned an EC50 of over 30 µM.
The same measure, in the same setting: to `COc1ccc(C2CC(c3ccc(Br)cc3)=NN2c2ccccc2Cl)cc1` (configuration not stated) [UNM-0000305832] belongs over 30 µM.
The same measure, in the same setting: to `COc1ccc(C2=NN(c3ccccc3)C(c3ccc(Cl)cc3)C2)cc1` (configuration not stated) [UNM-0000305833] belongs over 30 µM; to `O=S(=O)(O)c1ccc(N2N=C(c3ccccc3)CC2c2ccccc2)cc1` (configuration not stated) [UNM-0000305834], over 30 µM.
Still for that read-out and setting: the result for `Cc1cccc(N2N=C(c3ccccc3)CC2c2ccccc2)c1` (configuration not stated) [UNM-0000305835] reads over 30 µM; that for `O=[N+]([O-])c1ccc([N+]2=N[C-](c3ccccc3)CC2c2ccc(O)cc2)cc1` (configuration not stated) [UNM-0000305838], over 30 µM; that for `CN(C)c1ccc(C2CC(c3ccc(Br)cc3)=NN2c2ccccc2)cc1` (configuration not stated) [UNM-0000305846], over 30 µM.
The compound `CN(C)c1ccc(C2CC(c3ccc(Cl)cc3)=NN2c2ccccc2)cc1` (configuration not stated) [UNM-0000305847] gave a half-maximal effective concentration (EC50) of over 30 µM.
Take `COc1ccc(C2=NN(c3ccccc3)C(c3ccc(OC)c(OC)c3C(=O)O)C2)cc1` (configuration not stated) [UNM-0000305848]: the EC50 was over 30 µM.
The same measure, in the same setting: to `Cc1ccccc1[N+]1=N[C-](c2ccccc2)CC1c1cccc([N+](=O)[O-])c1` (configuration not stated) [UNM-0000305854] belongs over 30 µM; to `COc1ccccc1N1N=C(c2ccccc2)CC1c1ccccc1` (configuration not stated) [UNM-0000305855], over 30 µM; to `O=[N+]([O-])c1cccc(C2C[C-](c3ccccc3)N=[N+]2c2ccccc2)c1` (configuration not stated) [UNM-0000305857], over 30 µM.
The same measure, in the same setting: the result for `FC(F)(F)c1cccc(N2N=C(c3ccc(Cl)cc3)CC2c2ccccc2Cl)c1` (configuration not stated) [UNM-0000305859] reads over 30 µM.
Same read-out and setting: to `COc1ccc(C2=NN(c3ccc(Cl)cc3)C(c3ccccc3F)C2)cc1` (configuration not stated) [UNM-0000305863] belongs over 30 µM; to `COc1ccc(C2CC(c3ccc(F)cc3)=NN2c2ccccc2)cc1OC` (configuration not stated) [UNM-0000305864], over 30 µM.
Consider `CN(C)c1ccc(C2CC(c3ccc(F)cc3)=NN2c2ccccc2)cc1` (configuration not stated) [UNM-0000305866], for which the EC50 is over 30 µM.
The same measure, in the same setting: the result for `COc1ccc(C2CC(c3ccccc3)=NN2c2ccc(C(N)=O)cc2)cc1` (configuration not stated) [UNM-0000305870] reads over 30 µM.
As to `COc1ccc(C2CC(c3ccccc3)=NN2c2ccc(C(=O)O)cc2)cc1` (configuration not stated) [UNM-0000306085], the EC50 was over 30 µM.
Same read-out and setting: the result for `COc1ccc(C2CC(c3ccccc3F)=NN2c2ccc(S(N)(=O)=O)cc2)cc1` (configuration not stated) [UNM-0000306110] reads over 30 µM; that for `COc1ccc(C2CC(c3ccccc3Br)=NN2c2ccc(S(N)(=O)=O)cc2)cc1` (configuration not stated) [UNM-0000306112], over 30 µM.
Same read-out and setting: the result for `COc1ccc(C2CC(c3cccc(Br)c3)=NN2c2ccc(S(N)(=O)=O)cc2)cc1` (configuration not stated) [UNM-0000306113] reads over 30 µM; that for `COc1ccc(C2CC(c3cccc(Cl)c3)=NN2c2ccc(S(N)(=O)=O)cc2)cc1` (configuration not stated) [UNM-0000306134], over 30 µM.
Still for that read-out and setting: to `COc1ccc(C2CC(c3ccc(Br)cc3)=NN2c2ccc(S(N)(=O)=O)cc2)cc1` (configuration not stated) [UNM-0000306138] belongs over 30 µM; to `NS(=O)(=O)c1ccc(N2N=C(c3ccccc3)CC2c2cccc(Br)c2)cc1` (configuration not stated) [UNM-0000306147], over 30 µM; to `Cc1ccccc1C1CC(c2ccccc2)=NN1c1ccc(S(N)(=O)=O)cc1` (configuration not stated) [UNM-0000306148], over 30 µM.
Turning to `COc1ccc(C2CC(c3ccccc3C)=NN2c2ccc(S(N)(=O)=O)cc2)cc1` (configuration not stated) [UNM-0000306152], the concentration for a half-maximal effect (EC50) was over 30 µM.
Same read-out and setting: the result for `COc1ccc(C2CC(c3cccc(C)c3)=NN2c2ccc(S(N)(=O)=O)cc2)cc1` (configuration not stated) [UNM-0000306153] reads over 30 µM.
Still for that read-out and setting: the result for `NS(=O)(=O)c1ccc(N2N=C(c3ccccc3)CC2c2ccc(Br)cc2)cc1` (configuration not stated) [UNM-0000306160] reads over 30 µM.
Still for that read-out and setting: the result for `NS(=O)(=O)c1ccc(N2N=C(c3ccccc3)CC2c2cccc(Cl)c2)cc1` (configuration not stated) [UNM-0000306161] reads over 30 µM.

Still in this test, the particulars now being: inactive by the depositor's call.
`COc1ccc(C2CC(c3ccc(Cl)cc3)=NN2c2ccccc2)cc1OC` (configuration not stated) [UNM-0000305858]: the EC50 worked out at 0.079 µM.
The compound `COc1ccc(C2=NN(c3ccccc3F)C(c3ccc(F)cc3)C2)cc1` (configuration not stated) [UNM-0000305860] returned a half-maximal effective concentration (EC50) of 13.5 µM.
